The values that follow come from patent US20110136728A1, “METHODS OF INCREASING BONE FORMATION USING LEPTIN-RELATED PEPTIDES” (priority 2009, published 2011).

The subject of the assay is ob/ob mouse model. The experiment in a line: Earlier study of OB3 and D-amino acid-substituted OB3 analogs: body weight gain, food and water intake, blood glucose. Type of assay: in vivo. The settings on record: mouse, in vivo. From the text:
Single-point D-amino acid substitution was used to study the structure-function relationships of each amino acid residue in OB3, and to increase its efficacy. The restricted domain represented by OB3 contains a functional epitope, which has the ability to mimic at least some of the effects of leptin on energy balance and glucose homeostasis.
The design of peptide ligands involved the introduction of conformational constraints into native sequences by techniques that include, but are not limited to, D-amino acid substitution or cyclization. (Hruby and Bonner, Methods Mol Biol. 35:201-40 (1994)). Systematic replacement of L-amino acids by their D-amino acid isoforms was used to determine the stereostructural requirements of specific residues in a peptide for peptide-receptor interaction, and to assess the contribution of certain secondary structural motifs, e.g., α-helix or β-turn, to the bioactivity of the peptide. (Hruby, Biopolymers 33(7):1073-82 (1993) and Hruby, Life Sci. 52(10):845-55 (1993)). This approach increased peptide resistance to enzymatic hydrolysis, and to enhance the properties of biologically active peptides, including receptor binding, functional potency, and duration of action. (See Fauchere et al., Adv. Drug Res., 23:127-139 (1992); Doherty et al., J. Med. Chem., 36:2585-2594 (1993); Kirby et al., J. Med. Chem., 36:3802-3808 (1993); Morita et al., FEBS Lett., 353:84-88 (1994)).
(See Rozhayskaya-Arena M, et al., Endocrinology 141:2501-2517 (2000); Grasso P et al., Regulatory Pep. 101:123-129 (2001)).

No end group written: not given here.

Take “SCSLPQT [OB3, amino acid residues 116-122 of mouse leptin]”: the “maximal reduction of blood glucose levels” value is given as “approximately 100 mg/dl”.
